Counter-ions that a name gives are not always drawn.
Tested on: mHTT
Experiment: HTRF mHTT level in HD patient immortalized fibroblasts
Details: for mHTT level: c-Raf inhibitors and KSP inhibitors at 100 nM; for mHTT levels, comparison of FIG. 9: concentrations below the micromolar level
Protocol: Homogeneous time-resolved fluorescence (HTRF) analysis: the cell or tissue lysate was diluted with the original lysis buffer PBS+1% (v/v) Triton X-100+1×cOmplete™ protease inhibitor to lyse the sample, then HTRF assay buffer (50 mM NaH2PO4, 400 mM NaF, 0.1% BSA, 0.05% (v/v) Tween-20, 1% (v/v) Triton X-100, pH 7.4) was used to dilute the specified antibody pair for detection.
The immortalized fibroblasts of HD patients were treated using the above-mentioned c-Raf inhibitors and KSP inhibitors respectively at a concentration of 100 nM.

| Compound | mHTT level | mHTT levels, comparison of FIG. 9 |
| --- | --- | --- |
| CCCS(=O)(=O)Nc1ccc(F)c(C(=O)c2c[nH]c3ncc(Cl)cc23)c1F [PLX-4720] | No decrease in mHTT level was observed | did not reduce mHTT levels |
| CC(C)Oc1ccc(C(=O)N[C@H](CNC(=O)CN(C)C)Cc2ccc(-c3cn4cccc([C@H](C)O)c4n3)cc2)cc1Cl [GSK923295] | No decrease in mHTT level was observed | – |
| COc1ccc(Oc2cc(NCCC(F)(F)F)c3ncc(-c4ccc(C(=O)NC5CC5)c(C)c4)n3n2)c(F)c1F [BAY1217389] | No decrease in mHTT level was observed | did not reduce mHTT levels |
| CC(C)(C)c1nc(-c2cccc(NS(=O)(=O)c3c(F)cccc3F)c2F)c(-c2ccnc(N)n2)s1 [Dabrafenib] | No decrease in mHTT level was observed | – |
| CNC(=O)c1cc(Oc2ccc(NC(=O)Nc3ccc(Cl)c(C(F)(F)F)c3)cc2)ccn1 [Sorafenib Tosylate] | No decrease in mHTT level was observed | – |
